For one test, the target named is GST-Bcl-2 (Homo sapiens, UniProt P10415). Briefly: TR-FRET binding assay, GST-Bcl-2 with F-Bak peptide probe. The conditions noted are these: TR-FRET Binding Affinity, GST-Bcl-2, F-Bak peptide probe. An outline of the steps: (§1)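 Compounds were serially diluted in DMSO from a 50 μM starting solution (2× the starting concentration; 10% DMSO). Plates were incubated for 3 h at room temperature, and TR-FRET was read with 340/35 nm excitation and emission at 520/525 nm (F-Bak) and 495/510 nm (Tb antibody). Ki values were calculated using Wang's competitive-binding equation.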
Chain of GST-Bcl-2 (P10415 whole entry): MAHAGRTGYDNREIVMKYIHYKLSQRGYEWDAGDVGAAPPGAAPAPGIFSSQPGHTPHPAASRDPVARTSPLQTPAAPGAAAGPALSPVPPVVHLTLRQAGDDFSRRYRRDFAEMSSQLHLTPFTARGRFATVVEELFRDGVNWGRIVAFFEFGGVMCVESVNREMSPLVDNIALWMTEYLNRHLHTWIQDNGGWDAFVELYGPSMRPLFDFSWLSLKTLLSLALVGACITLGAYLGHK
Background: TR-FRET usually uses a lanthanide donor and a delayed reading to cut background.

Another test has as its target GST-Bcl-XL (Homo sapiens, UniProt Q07817). Briefly: TR-FRET binding assay, GST-Bcl-XL with F-Bak peptide probe. As to conditions: TR-FRET Binding Affinity, GST-Bcl-XL, F-Bak peptide probe. An outline of the steps: as §1
For the next test, the system named is FL5.12/Bcl-2 cells. Briefly: FL5.12/Bcl-2 cell viability assay under IL-3 withdrawal (CellTitre Glo). Format: cell-based, murine. As to conditions: Mus musculus, IL-3 withdrawn 48 hrs, then 24 hrs with compound. In short, it runs like this: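 Murine IL-3-dependent FL5.12 cells stably overexpressing Bcl-2 were deprived of IL-3 (WEHI-3B conditioned medium omitted) for 48 hrs, then exposed to various compound concentrations for a further 24 hrs at 37° C, 5% CO2. Viability was read by CellTitre Glo luminescence.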

pEC50, pKi: −log10 of the molar value. Some results are limits rather than exact numbers.

Chain of GST-Bcl-XL (Q07817 whole entry): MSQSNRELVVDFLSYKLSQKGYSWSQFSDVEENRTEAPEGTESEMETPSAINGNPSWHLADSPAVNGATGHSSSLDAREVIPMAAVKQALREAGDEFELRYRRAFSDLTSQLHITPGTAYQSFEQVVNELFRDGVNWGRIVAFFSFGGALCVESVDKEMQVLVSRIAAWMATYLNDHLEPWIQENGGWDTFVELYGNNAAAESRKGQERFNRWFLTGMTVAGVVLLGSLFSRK

The pKi is the Ki on a negative log10 scale, so that one unit is a factor of ten. A lower pKi goes with a large Ki. As usually defined, the pEC50 is the EC50 on a negative log10 scale, so that one unit is a factor of ten. Take `CC1(C)CCC(CN2CCN(c3ccc(C(=O)NS(=O)(=O)c4ccc(NC5CCC(N6CCOCC6)CC5)c([N+](=O)[O-])c4)c(Oc4ccc5[nH]ccc5c4)c3)CC2)=C(c2ccc(Cl)cc2)C1` (stereo not drawn) [Example 363, 4-(4-{[2-(4-chlorophenyl)-4,4-dimethylcyclohex-1-en-1-yl]methyl}piperazin-1-yl)-2-(1H-indol-5-yloxy)-N-({4-[(4-morpholin-4-ylcyclohexyl)amino]-3-nitrophenyl}sulfonyl)benzamide]: the pKi at GST-Bcl-2 was 9.74; on GST-Bcl-XL, less than 6.18. In addition, the negative-log EC50 (pEC50) with FL5.12/Bcl-2 cells is 7.06.

For `CC1(C)CCC(CN2CCN(c3ccc(C(=O)NS(=O)(=O)c4cnc(OCC5CCOCC5)c(Br)c4)c(Oc4cccc5[nH]ccc45)c3)CC2)=C(c2ccc(Cl)cc2)C1` [Example 364, N-{[5-bromo-6-(tetrahydro-2H-pyran-4-ylmethoxy)pyridin-3-yl]sulfonyl}-4-(4-{[2-(4-chlorophenyl)-4,4-dimethylcyclohex-1-en-1-yl]methyl}piperazin-1-yl)-2-(1H-indol-4-yloxy)benzamide], the pKi at GST-Bcl-2 is 11.22; at GST-Bcl-XL, 7.12. Also, the pEC50 with FL5.12/Bcl-2 cells is 6.73.

For the compound `CC1(C)CCC(CN2CCN(c3ccc(C(=O)NS(=O)(=O)c4cnc(NCC5CCOCC5)c(-c5nccs5)c4)c(Oc4cccc5[nH]ccc45)c3)CC2)=C(c2ccc(Cl)cc2)C1` [Example 365, 4-(4-{[2-(4-chlorophenyl)-4,4-dimethylcyclohex-1-en-1-yl]methyl}piperazin-1-yl)-2-(1H-indol-4-yloxy)-N-{[6-[(tetrahydro-2H-pyran-4-ylmethyl)amino]-5-(1,3-thiazol-2-yl)pyridin-3-yl]sulfonyl}benzamide], the negative-log Ki (pKi) on GST-Bcl-2 was 8.97; at GST-Bcl-XL it was less than 6.18. In addition, in the test with FL5.12/Bcl-2 cells, the pEC50 is less than 6.30.

With `CC1(C)CCC(CN2CCN(c3ccc(C(=O)NS(=O)(=O)c4ccc(NCC5CCOCC5)c(C#N)c4)c(Oc4cccc5[nH]ccc45)c3)CC2)=C(c2ccc(Cl)cc2)C1` [Example 366, 4-(4-{[2-(4-chlorophenyl)-4,4-dimethylcyclohex-1-en-1-yl]methyl}piperazin-1-yl)-N-({3-cyano-4-[(tetrahydro-2H-pyran-4-ylmethyl)amino]phenyl}sulfonyl)-2-(1H-indol-4-yloxy)benzamide], the results for the negative logarithm of the Ki (pKi) at GST-Bcl-2 and on GST-Bcl-XL were 8.26 and less than 6.18, respectively. The pEC50 with FL5.12/Bcl-2 cells was less than 6.30.

Turning to `CC1(C)CCC(CN2CCN(c3ccc(C(=O)NS(=O)(=O)c4ccc(NCC5CCOCC5)c(C#N)c4)c(Oc4ccc5[nH]ccc5c4)c3)CC2)=C(c2ccc(Cl)cc2)C1` [Example 367, 4-(4-{[2-(4-chlorophenyl)-4,4-dimethylcyclohex-1-en-1-yl]methyl}piperazin-1-yl)-N-({3-cyano-4-[(tetrahydro-2H-pyran-4-ylmethyl)amino]phenyl}sulfonyl)-2-(1H-indol-5-yloxy)benzamide], the figures for the negative logarithm of the Ki (pKi) at GST-Bcl-2 and at GST-Bcl-XL were 8.34 and less than 6.18, respectively. For the same compound, in the test on FL5.12/Bcl-2 cells, the negative-log EC50 (pEC50) was less than 6.30.

With `CC(C)(C)CCNc1ccc(S(=O)(=O)NC(=O)c2ccc(N3CCN(CC4=C(c5ccc(Cl)cc5)CC(C)(C)CC4)CC3)cc2Oc2ccc3[nH]ccc3c2)cc1[N+](=O)[O-]` [Example 368, 4-(4-{[2-(4-chlorophenyl)-4,4-dimethylcyclohex-1-en-1-yl]methyl}piperazin-1-yl)-N-({4-[(3,3-dimethylbutyl)amino]-3-nitrophenyl}sulfonyl)-2-(1H-indol-5-yloxy)benzamide], the pKi on GST-Bcl-2 is less than 5.92; on GST-Bcl-XL it was less than 6.18. Also, in the test on FL5.12/Bcl-2 cells, the negative logarithm of the EC50 (pEC50) was less than 6.30.

For the compound `CC(C)C[C@@H](CO)Nc1ccc(S(=O)(=O)NC(=O)c2ccc(N3CCN(CC4=C(c5ccc(Cl)cc5)CC(C)(C)CC4)CC3)cc2Oc2ccc3[nH]ccc3c2)cc1[N+](=O)[O-]` [Example 369, 4-(4-{[2-(4-chlorophenyl)-4,4-dimethylcyclohex-1-en-1-yl]methyl}piperazin-1-yl)-N-[(4-{[(1S)-1-(hydroxymethyl)-3-methylbutyl]amino}-3-nitrophenyl)sulfonyl]-2-(1H-indol-5-yloxy)benzamide], the results for the pKi at GST-Bcl-2 and on GST-Bcl-XL were 6.08 and less than 6.18, respectively. Further, the negative logarithm of the EC50 (pEC50) in the test with FL5.12/Bcl-2 cells is less than 6.30.

Take `CC1(C)CCC(CN2CCN(c3ccc(C(=O)NS(=O)(=O)c4ccc(NC[C@H]5CCCO5)c([N+](=O)[O-])c4)c(Oc4ccc5[nH]ccc5c4)c3)CC2)=C(c2ccc(Cl)cc2)C1` [Example 370, 4-(4-{[2-(4-chlorophenyl)-4,4-dimethylcyclohex-1-en-1-yl]methyl}piperazin-1-yl)-2-(1H-indol-5-yloxy)-N-[(3-nitro-4-{[(2R)-tetrahydrofuran-2-ylmethyl]amino}phenyl)sulfonyl]benzamide]: the figures for the negative logarithm of the Ki (pKi) on GST-Bcl-2 and at GST-Bcl-XL were 9.04 and less than 6.18, respectively. Moreover, in the test with FL5.12/Bcl-2 cells, the pEC50 is 6.58.

Turning to `CC(C)[C@H](CO)Nc1ccc(S(=O)(=O)NC(=O)c2ccc(N3CCN(CC4=C(c5ccc(Cl)cc5)CC(C)(C)CC4)CC3)cc2Oc2ccc3[nH]ccc3c2)cc1[N+](=O)[O-]` [Example 371, 4-(4-{[2-(4-chlorophenyl)-4,4-dimethylcyclohex-1-en-1-yl]methyl}piperazin-1-yl)-N-[(4-{[(1R)-1-(hydroxymethyl)-2-methylpropyl]amino}-3-nitrophenyl)sulfonyl]-2-(1H-indol-5-yloxy)benzamide], the results for the pKi at GST-Bcl-2 and on GST-Bcl-XL were 8.08 and less than 6.18, respectively. Moreover, the negative logarithm of the EC50 (pEC50) in the test with FL5.12/Bcl-2 cells is less than 6.30.

With `COc1ccc(Nc2ccc(S(=O)(=O)NC(=O)c3ccc(N4CCN(CC5=C(c6ccc(Cl)cc6)CC(C)(C)CC5)CC4)cc3Oc3ccc4[nH]ccc4c3)cc2[N+](=O)[O-])cc1` [Example 372, 4-(4-{[2-(4-chlorophenyl)-4,4-dimethylcyclohex-1-en-1-yl]methyl}piperazin-1-yl)-2-(1H-indol-5-yloxy)-N-({4-[(4-methoxyphenyl)amino]-3-nitrophenyl}sulfonyl)benzamide], the values for the negative-log Ki (pKi) on GST-Bcl-2 and at GST-Bcl-XL were less than 5.92 and less than 6.18, respectively. Further, the negative-log EC50 (pEC50) in the test on FL5.12/Bcl-2 cells was less than 6.30.

For `CC1(C)CCC(CN2CCN(c3ccc(C(=O)NS(=O)(=O)c4ccc(NCCCN5CCCC5=O)c([N+](=O)[O-])c4)c(Oc4ccc5[nH]ccc5c4)c3)CC2)=C(c2ccc(Cl)cc2)C1` [Example 374, 4-(4-{[2-(4-chlorophenyl)-4,4-dimethylcyclohex-1-en-1-yl]methyl}piperazin-1-yl)-2-(1H-indol-5-yloxy)-N-[(3-nitro-4-{[3-(2-oxopyrrolidin-1-yl)propyl]amino}phenyl)sulfonyl]benzamide], the pKi is 8.64 at GST-Bcl-2 and less than 6.18 at GST-Bcl-XL. The pEC50 with FL5.12/Bcl-2 cells was less than 6.30.

For `CC1(C)CCC(CN2CCN(c3ccc(C(=O)NS(=O)(=O)c4ccc(Nc5ccc(O)cc5)c([N+](=O)[O-])c4)c(Oc4ccc5[nH]ccc5c4)c3)CC2)=C(c2ccc(Cl)cc2)C1` [Example 375, 4-(4-{[2-(4-chlorophenyl)-4,4-dimethylcyclohex-1-en-1-yl]methyl}piperazin-1-yl)-N-({4-[(4-hydroxyphenyl)amino]-3-nitrophenyl}sulfonyl)-2-(1H-indol-5-yloxy)benzamide], the negative logarithm of the Ki (pKi) at GST-Bcl-2 was 7.95; on GST-Bcl-XL, less than 6.18. In the test with FL5.12/Bcl-2 cells, the pEC50 is less than 6.30.

In the case of `CC1(C)CCC(CN2CCN(c3ccc(C(=O)NS(=O)(=O)c4ccc(NCCc5ccc(S(N)(=O)=O)cc5)c([N+](=O)[O-])c4)c(Oc4ccc5[nH]ccc5c4)c3)CC2)=C(c2ccc(Cl)cc2)C1` [Example 376, N-{[4-({2-[4-(aminosulfonyl)phenyl]ethyl}amino)-3-nitrophenyl]sulfonyl}-4-(4-{[2-(4-chlorophenyl)-4,4-dimethylcyclohex-1-en-1-yl]methyl}piperazin-1-yl)-2-(1H-indol-5-yloxy)benzamide], the negative logarithm of the Ki (pKi) at GST-Bcl-2 is 7.65; at GST-Bcl-XL it was less than 6.18. Also, the pEC50 in the test with FL5.12/Bcl-2 cells was less than 6.30.

Take `CC1(C)CCC(CN2CCN(c3ccc(C(=O)NS(=O)(=O)c4ccc(NCCCn5ccnc5)c([N+](=O)[O-])c4)c(Oc4ccc5[nH]ccc5c4)c3)CC2)=C(c2ccc(Cl)cc2)C1` [Example 377, 4-(4-{[2-(4-chlorophenyl)-4,4-dimethylcyclohex-1-en-1-yl]methyl}piperazin-1-yl)-N-[(4-{[3-(1H-imidazol-1-yl)propyl]amino}-3-nitrophenyl)sulfonyl]-2-(1H-indol-5-yloxy)benzamide]: the negative logarithm of the Ki (pKi) on GST-Bcl-2 was 9.85; at GST-Bcl-XL it was 6.49. For the same compound, the pEC50 with FL5.12/Bcl-2 cells was 7.07.

`C[C@H](Nc1ccc(S(=O)(=O)NC(=O)c2ccc(N3CCN(CC4=C(c5ccc(Cl)cc5)CC(C)(C)CC4)CC3)cc2Oc2ccc3[nH]ccc3c2)cc1[N+](=O)[O-])c1ccccc1` [Example 378, 4-(4-{[2-(4-chlorophenyl)-4,4-dimethylcyclohex-1-en-1-yl]methyl}piperazin-1-yl)-2-(1H-indol-5-yloxy)-N-[(3-nitro-4-{[(1S)-1-phenylethyl]amino}phenyl)sulfonyl]benzamide]: the negative logarithm of the Ki (pKi) is 7.20 at GST-Bcl-2 and less than 6.18 at GST-Bcl-XL. Further, the pEC50 in the test on FL5.12/Bcl-2 cells was less than 6.30.

Regarding `CC1(C)CCC(CN2CCN(c3ccc(C(=O)NS(=O)(=O)c4cc(F)c(NCC5CCOCC5)cc4Cl)c(Oc4ccc5[nH]ccc5c4)c3)CC2)=C(c2ccc(Cl)cc2)C1` [Example 379, N-({2-chloro-5-fluoro-4-[(tetrahydro-2H-pyran-4-ylmethyl)amino]phenyl}sulfonyl)-4-(4-{[2-(4-chlorophenyl)-4,4-dimethylcyclohex-1-en-1-yl]methyl}piperazin-1-yl)-2-(1H-indol-5-yloxy)benzamide], the pKi is 6.59 at GST-Bcl-2 and less than 6.18 on GST-Bcl-XL. In addition, the negative logarithm of the EC50 (pEC50) in the test on FL5.12/Bcl-2 cells is less than 6.30.

The record behind these values is patent publication US9073855B2, “BCL-2 selective apoptosis-inducing agents for the treatment of cancer and immune diseases” (AbbVie Inc., priority 2008, dated 2015).
